The values below come from patent US7423020B2, “Treatment of mood disorders by administration of SMR1” (Institut Pasteur, priority 2001, dated 2008).

SMILES strings stand for the structures.

The subject of experiment [1] is male Wistar/AF EOPS rats. Kind of experiment: Behavioral despair test (forced swimming). Type of experiment: in vivo, rat. As to conditions: first 5 minutes, n = 10.
In experiment [2] the test system is male Wistar/AF EOPS rats. Kind of experiment: Behavioral despair test (forced swimming). Format: in vivo, rat. How it is done:
Forty male Wistar/AF EOPS rats (Iffa-Credo Breeding Centre, 69-St-Germain sur l'Arbresle, France), weighing 300 to 320 g, were used. On arrival, the rats were labelled and distributed randomly in pairs into type F polycarbonate cages (48×27×20 cm, U.A.R., 91-Epinay-Sur-Orge, France). The animals were stabled in an air-conditioned animal house, at a temperature of 22-24° C. The rats were given food (M25 croquettes, Ets Pietrement, 77-Provins, France) and drink ad libitum and were subjected to a 12-hour light-darkness cycle.
After one week of familiarization with the laboratory conditions, the rats were weighed and distributed randomly into 3 treatment groups (n=12). The rats of the different groups will all be handled in the same way and under the same conditions.
The behavioral despair test takes place over two sessions: • a 15-minute test session; • a 5-minute retest session, performed 24 hours later.
During the test session, the rat was subjected to forced swimming in a Plexiglas cylinder (20 cm in diameter and 50 cm in height, containing 25 cm of water at 25° C.) and its behavior was recorded over 15 minutes. At the end of the test, the rat was removed from the water, dried gently, treated and then returned to its dwelling cage.
During the retest, 24 hours later, the rat was again placed in the water and its behavior was recorded over 5 minutes.
The recorded variables are the period of immobility during the first 5 minutes of both the test and the retest.
The peptide FG-005 (SMR1-QHNPR) (SEQ ID NO: 1) was suspended at a rate of 500 μg per 5 ml of 0.01N acetic acid, and then diluted with PBS to be administered at doses of 50 and 100 μg/kg via the i.v. route into the dorsal caudal vein of the rat, immediately after the test and 300 and 5 minutes before the retest the following day.
A bilateral probability paired t test was used to compare the two periods of immobility of the test with those of the retest in each of the groups. The results are expressed as an average ±standard error of mean (SEM)(FIG. 4). The statistical and graphical processing was performed using Statview5 and DeltaGraph® Pro 3.5 software.

Experiment [3] addresses T1, NEP (Rattus norvegicus, UniProt P07861).
T1 construct: incubations of membrane and fresh tissue slice preparations from nervous tissues; from tissue; host or cells: rat spinal cord (dorsal zone), fresh slices or 100 000 x g membrane fraction
T1 sequence (P07861 1-750): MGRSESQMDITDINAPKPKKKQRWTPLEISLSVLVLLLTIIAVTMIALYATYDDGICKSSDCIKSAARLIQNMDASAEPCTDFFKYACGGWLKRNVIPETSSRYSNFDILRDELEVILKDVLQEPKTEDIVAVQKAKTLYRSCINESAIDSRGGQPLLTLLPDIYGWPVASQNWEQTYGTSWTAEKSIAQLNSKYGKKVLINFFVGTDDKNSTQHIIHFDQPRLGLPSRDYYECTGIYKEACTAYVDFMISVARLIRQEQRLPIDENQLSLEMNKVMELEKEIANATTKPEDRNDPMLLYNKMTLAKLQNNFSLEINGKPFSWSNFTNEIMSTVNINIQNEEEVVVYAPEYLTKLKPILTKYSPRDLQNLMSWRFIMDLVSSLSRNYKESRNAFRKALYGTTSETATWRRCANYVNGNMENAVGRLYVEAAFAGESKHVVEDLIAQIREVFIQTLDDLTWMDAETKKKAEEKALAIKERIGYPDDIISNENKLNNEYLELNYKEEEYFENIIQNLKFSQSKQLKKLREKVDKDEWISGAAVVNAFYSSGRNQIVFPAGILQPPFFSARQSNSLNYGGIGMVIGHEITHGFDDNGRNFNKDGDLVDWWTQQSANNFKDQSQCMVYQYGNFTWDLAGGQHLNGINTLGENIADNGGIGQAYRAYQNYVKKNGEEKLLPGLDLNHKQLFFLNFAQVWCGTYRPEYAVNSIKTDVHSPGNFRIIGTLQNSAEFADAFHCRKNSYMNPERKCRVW
Kind of experiment: Met-enkephalin hydrolysis by rat spinal cord slices and membrane preparations, RP-HPLC analysis. Format: biochemical. The conditions noted are these: for inhibition of enkephalinase activity over the time of incubation: 37° C., from 10 to 30 min, 10 μM Phosphoramidon, 1 μM Thiorphan. How it is done:
The organs are rapidly removed, dissected on ice, freed of nerve fibers and of adipose tissues and then washed in cold oxygenated glucose-and bicarbonate-containing Krebs Ringer (KRBG) solution, whose composition is the following: 120 mM NaCl-5 mM KCl-1.2 mM KH2PO4-27.5 mM NaHCO3-2.6 mM CaCl2-0.67 mM MgSO4-5.9 mM glucose. The slices of tissues are prepared either manually with the aid of a scalpel (1-2 mm thick), or mechanically with the aid of a “Tissue Chopper” (1 mm thick). Slices are then dispersed into reaction tubes where they are subjected to three successive washes in ice-cold oxygenated KRBG. […] The organs dissected out and washed in ice-cold KRBG are homogenized at 4° C. in 10 volumes (vol./wt.) of 50 mM Tris/HCl buffered at pH 7.2, using a Teflon-glass homogenizer (3×5 sec.). A first centrifugation of 5 min. at 1000×g and 4° C. makes it possible to remove the tissular debris and the nuclei in the pellet. A second centrifugation of the supernatant at 100 000×g and 5° C. concentrates the membrane fraction into the pellet, which will be superficially washed three times with cold Tris/HCl buffer and resuspended in fresh buffer using a Kontes homogenizer, aliquoted and stored at -80° C. while waiting to be used as enzyme source, at least until three months. For the experiments of analysis of the NEP peptidase activity, an ex vivo model using incubations of membrane and fresh tissue slice preparations from nervous tissues that are known to be appropriate for exploring NEP peptidase activity: i.e. the dorsal zone of rat spinal cord, was first developed. The metabolism rate of the NEP-sensitive peptides was measured using the both NEP substrates involved in the signaling of the nociceptive response: the neuropeptides Met-enkephalin and Substance P. […] (NEN, 12.5-25 nM) were used. The objective was to measure the NEP-specific endoproteolysis of these substrates. […] Furthermore, for studying the functional role of […] NO: 1), the reaction was carried out in the presence of the SMR1-peptide alone or combined with specific inhibitors of membrane peptidases which could inactivate the […] NO: 1) peptide by cleaving its C-terminal end: an inhibitor of carboxypeptidase […], 10 μM, Sigma) and an inhibitor of dipeptidylpeptidase IV (DPPIV inhibitor, 10 μM, Roche). […] Samples are kept at -30° C. until the measurement of their intact substrate and its metabolites content. The membrane preparations are preincubated in 50 mM Tris/HCl buffered at pH 7.2 and containing 10 μM Bestatin, at 25, 30 or 37° C. in constantly shaken water, in the presence or in the absence of NEP inhibitor. […] Samples are kept at -30° C. until the measurement of their intact substrate and its metabolites content. HPLC is a highly resolutive procedure that allows one to isolate, and detect by coupled spectrophotometer analysis, the non-radioactive peptides whose concentration is at least 1 to 10 μM. The C-18 RP-HPLC is based on the same principle as the C-18 Sep-Pak cartridge. The chromatographic analyses were used to study the hydrolysis of Met-Enkephalin, that were done on a C-18 LUNA analytical column (150×4.6 mm inner diameter, AIT) packed with 5 μm-diameter beads. […] Their identification and relative quantification (peak height) are checked by continuously monitoring the UV absorbance at 254 nm of column outflow. In first series of experiment, the slices and the membrane preparations of spinal cord tissues were incubated at 30° C. in a 1 ml final volume of KRBG, and at 37° C. in a 0.25 ml final volume of Tris/HCl 50 mM, pH 7.2, respectively.

Experiment [4] addresses T1, NEP. Kind of experiment: Met-enkephalin degradation by rat spinal cord slices, RIA assay. Type of experiment: biochemical. As to conditions: 10 μM; fresh spinal cord slices; 20 min at 25° C.; 10 μM Met-enkephalin. Here is the method: (§1) For the experiments of analysis of the NEP peptidase activity, an ex vivo model using incubations of membrane and fresh tissue slice preparations from nervous tissues that are known to be appropriate for exploring NEP peptidase activity: i.e. the dorsal zone of rat spinal cord, was first developed. […] (NEN, 12.5-25 nM) were used.
(§2) The objective was to measure the NEP-specific endoproteolysis of these substrates.

The target in experiment [5] is T1, NEP. Kind of experiment: 3H-Substance P hydrolysis by rat spinal cord slices. Type of experiment: biochemical. The conditions noted are these: 25° C., over 30 min incubation, read-out: inhibition of Substance P degradation. Here is the method: as §1, §2
The C-18 Sep-Pak cartridges (Waters) were used to analyze the hydrolysis of the radiolabeled peptides: they separate compounds according to their differences in polarity. This solid-phase extraction procedure allows isolating the substrate from its metabolites, since the hydrophobic character of the peptide metabolites is reduced or even lost compared to the intact peptide substrate.
The radioactivity of eluted and isolated compounds is determined by liquid scintillation spectrometry.

For the molecule `CCCN(CCC)C1CCc2cccc(O)c2C1` (centres unmarked) [8-OH-DPAT, reference compound], in experiment [1] (0.5 mg/kg i.p., 1440, 300, 30 min before the retest), the “Immobility period, Retest” value worked out at 31.60 ± 11.51. Further, the “Immobility period, Test” value in experiment [1] (8-OH-DPAT group, 0.5 mg/kg i.p., test session before any treatment) was found to be 109.20 ± 11.43. For the same molecule, the “change of period of immobility, retest compared with test” value in experiment [2] (8-OH-DPAT treated rats) is recorded as “significantly reduce their period of immobility”. Further, the “overall effect in the behavioral despair test” value in experiment [2] (FG-005 50 and 100 μg/kg i.v., 8-OH-DPAT as reference substance) is given as “significant anti-resignation effect”.
What is called inhibition is the change of the read-out against control, counted positive when it falls. As to `CC(C)C[C@H](NP(=O)(O)O[C@@H]1O[C@@H](C)[C@H](O)[C@@H](O)[C@H]1O)C(=O)N[C@@H](Cc1c[nH]c2ccccc12)C(=O)O` [Phosphoramidon], the inhibition at 10 µM was in the range of 80 to 90% in experiment [3] (10 μM, membrane preparations and fresh tissue slices, 10 min incubation at 37° C., read-out: inhibition of Met-enkephalin hydrolysis (enkephalinase activity)); 60 to 65% in experiment [5]. Further, the “inhibition of Met-enkephalin degradation (RP-HPLC)” value in experiment [3] (10 μM, spinal cord slices, 20 min at 25° C., Met-enkephalin 10 μM) is “complete inhibition”. In addition, in experiment [3], the “inhibition of enkephalinase activity over the time of incubation” value is “almost complete inhibition”. Also, the “protection of Met-enkephalin from degradation (RIA)” value in experiment [4] worked out at 96%.
In the case of `O=C(O)CNC(=O)C(CS)Cc1ccccc1` (centres unmarked) [Thiorphan], the inhibition at 1 µM in experiment [3] (1 μM, membrane preparations and fresh tissue slices, 10 min incubation at 37° C., read-out: inhibition of Met-enkephalin hydrolysis (enkephalinase activity)) was 80 to 90%. The inhibition at 10 µM in experiment [3] (10 μM, spinal cord slices, 20 min at 25° C., Met-enkephalin 10 μM, read-out: inhibition of Met-enkephalin degradation (RP-HPLC)) is 80%; in experiment [5] it was 60 to 65%. In addition, the “inhibition of enkephalinase activity over the time of incubation” value in experiment [3] is recorded as “almost complete inhibition”. Besides, in experiment [4], the “protection of Met-enkephalin from degradation (RIA)” value is recorded as 100%.
